Reference: US6235284A, “Synthetic polypeptides belonging to the hepatitis C virus (HCV) and which can be used especially for detecting the latter” (Bio Merieux, priority 1992, dated 2001)

System: anti-HCV antibodies (HCV-positive sera)
Assay: ELISA detection of anti-HCV antibodies in HCV-positive sera with adsorbed peptides
Assay type: binding, human
Protocol: The reactivity of these three peptides towards the sera of individuals infected with the hepatitis C virus, termed (HCV) positive, was evaluated in an ELISA test according to the procedure described below.
Detection of anti-HCV Antibodies by ELISA
The wells of a microtiter plate of "NUNC MAXISORB™" trademark are saturated with 100 μl of a solution containing the peptide or a mixture of peptides (10 μg/ml) for 2 hours at 37° C. The plate is then emptied, then washed with a wash buffer containing 0.05% TWEEN™ 20(polysorbate 20). The wells are saturated with 100 μl of wash buffer supplemented with 10% goat serum (v/v), then incubated for 30 minutes at 37° C., then washed again as above. The sera to be analyzed are diluted to the appropriate dilution with saturation buffer. The incubation of the sera is 1 hour at 37° C. The wells are again washed. The solution of conjugate (goat IgG to human IgG labelled with peroxidase) at a dilution of 1/1000 in the saturation buffer is then added and the incubation lasts for 90 minutes at 37° C. After washing, the solution of orthophenylenediamine substrate is added. After 10 minutes, the reaction is stopped with 50 μl of H2 SO4 and the optical density is read at 492 nm. It should be noted that all the tests were carried out in duplicate.
For that, the different peptides are adsorbed on the microplates at a concentration of 10 μg/ml and the sera are used at 1/100 dilution.
The values obtained, which are collated in Table 1 below, correspond to the optical density (OD) multiplied by 10^3, at 492 nm.
For each serum the experiment was carried out in duplicate. The **** are values outside the upper scale.
The different peptides are absorbed onto microplates at a concentration of 10 μg/ml and the sera are used at the dilution stated.
The values obtained, which are collated in Table 2 below, correspond to the optical density at 492 nm. All the experiments were carried out in duplicate.
Each serum was, in a first instance, tested at the dilution 1/100.
The values given correspond to the optical density read at 492 nm multiplied by the factor 10^3.

Substance	optical density at 492 nm (Table 4, serum A 8, 1/1000) [OD × 10^3]	optical density at 492 nm (Table 4, serum A 8, 1/10,000) [OD × 10^3]	optical density at 492 nm (Table 4, serum A 9, 1/1000) [OD × 10^3]	optical density at 492 nm (Table 4, serum A 9, 1/10,000) [OD × 10^3]	optical density at 492 nm (Table 4, serum A 10, 1/1000) [OD × 10^3]	optical density at 492 nm (Table 4, serum A 10, 1/10,000) [OD × 10^3]	optical density at 492 nm (Table 4, serum A 11, 1/100) [OD × 10^3]	optical density at 492 nm (Table 4, serum A 11, 1/1000) [OD × 10^3]	optical density at 492 nm (Table 4, serum A 11, 1/10,000) [OD × 10^3]	optical density at 492 nm (Table 4, serum A 12, 1/10,000) [OD × 10^3]	optical density at 492 nm (Table 4, serum P 1, 1/100) [OD × 10^3]	optical density at 492 nm (Table 4, serum P 2, 1/100) [OD × 10^3]	optical density at 492 nm (Table 4, serum P 3, 1/100) [OD × 10^3]	optical density at 492 nm (Table 4, serum P 4, 1/1000) [OD × 10^3]	optical density at 492 nm (Table 4, serum P 4, 1/10,000) [OD × 10^3]	optical density at 492 nm (Table 4, serum P 5, 1/10,000) [OD × 10^3]	optical density at 492 nm (Table 4, serum P 7, 1/10,000) [OD × 10^3]	optical density at 492 nm (Table 4, serum P 8, 1/10,000) [OD × 10^3]	optical density at 492 nm (Table 4, serum P 10, 1/100) [OD × 10^3]	optical density at 492 nm (Table 4, serum P 14, 1/10,000) [OD × 10^3]	further results
P27Y: peptide corresponding to the amino acid sequence 7 to 35 of the CORE protein (PQRKTKRNTNRRPQDVKFPGGGQIVGGVY)	1198	118	1388	182	334	31	1937	226	33	365	620	891	1470	2111	324	856	1667	654	60	566	optical density at 492 nm (Table 4, serum A 10, 1/100): 2308 OD × 10^3; optical density at 492 nm (Table 4, serum P 16, 1/1000): 913 OD × 10^3; optical density at 492 nm (Table 4, serum P 16, 1/10,000): 104 OD × 10^3; optical density at 492 nm (Table 4, serum P 17, 1/100): 2300 OD × 10^3; optical density at 492 nm (Table 4, serum P 23, 1/100): 138 OD × 10^3; optical density at 492 nm (Table 4, serum P 24, 1/100): 1063 OD × 10^3; optical density at 492 nm (Table 4, serum P 29, 1/100): 347 OD × 10^3; optical density at 492 nm (Table 4, serum P 30, 1/100): 2274 OD × 10^3
P37G: peptide corresponding to the amino acid sequence 7 to 45 of the CORE protein (PQRKTKRNTNRRPQDVKFPGGGQIVGGVYLLPRRGPRLG)																					optical density at 492 nm (Table 5, serum A8, 1/10,000): 525 OD × 10^3; optical density at 492 nm (Table 5, serum A 9, 1/1000): 2059 OD × 10^3; optical density at 492 nm (Table 5, serum A 9, 1/10,000): 275 OD × 10^3; optical density at 492 nm (Table 5, serum A10, 1/10,000): 1215 OD × 10^3; optical density at 492 nm (Table 5, serum A11, 1/10,000): 321 OD × 10^3; optical density at 492 nm (Table 5, serum A12, 1/10,000): 823 OD × 10^3; optical density at 492 nm (Table 5, serum A13, 1/10,000): 1061 OD × 10^3; optical density at 492 nm (Table 5, serum A14, 1/1000): 539 OD × 10^3; optical density at 492 nm (Table 5, serum A14, 1/10,000): 65 OD × 10^3; optical density at 492 nm (Table 5, serum A15, 1/10,000): 905 OD × 10^3; optical density at 492 nm (Table 5, serum A16, 1/10,000): 2003 OD × 10^3; optical density at 492 nm (Table 5, serum A19, 1/10,000): 446 OD × 10^3; optical density at 492 nm (Table 5, serum A20, 1/10,000): 2338 OD × 10^3; optical density at 492 nm (Table 5, serum A21, 1/1000): 652 OD × 10^3; optical density at 492 nm (Table 5, serum A21, 1/10,000): 90 OD × 10^3; optical density at 492 nm (Table 5, serum A22, 1/1000): 702 OD × 10^3; optical density at 492 nm (Table 5, serum A22, 1/10,000): 102 OD × 10^3; optical density at 492 nm (Table 5, serum A23, 1/10,000): 557 OD × 10^3; reactivity towards HCV-positive sera (in words): little or no difference is observed in reactivity
S32Y: peptide corresponding to the amino acid sequence 2 to 35 of the CORE protein (STNPKPQRKTKRNTNRRPQDVKFPGGGQIVGGVY)	1372	173	1941	297	373	33	2240	228	36	588	703	1177	1576	2165	369	1242	1932	1068	78	601	optical density at 492 nm (Table 4, serum P 16, 1/1000): 983 OD × 10^3; optical density at 492 nm (Table 4, serum P 16, 1/10,000): 124 OD × 10^3; optical density at 492 nm (Table 4, serum P 23, 1/100): 157 OD × 10^3; optical density at 492 nm (Table 4, serum P 24, 1/100): 1214 OD × 10^3; optical density at 492 nm (Table 4, serum P 29, 1/100): 400 OD × 10^3
